# Source: PubChem BioAssay AID330 (DTP/NCI, 2004)
# Several values for one entry are separate records, joined by “and”; a condition that tells them apart may be missing. Identical values can stand only once. Inconclusive results and toxic doses are left out.
# Tested on: P388 leukemia ip, CD2F1 mice, survival T/C
# Experiment: NCI In Vivo Anticancer Drug Screen. Data for tumor model P388 Leukemia (intraperitoneal) in CD2F1 (CDF1) mice
# Conditions: endpoint: median survival time, higher = longer survival
# Outline: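 Mice carrying the transplanted tumor received test compound or vehicle. Survival was recorded in each group, and the value is the treated-group measurement divided by that of the vehicle-treated control group.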
# [1] = dose: 100.0 mg/kg/injection, schedule: Q04DX003 (ip), vehicle: saline
# [2] = dose: 200.0 mg/kg/injection, schedule: Q04DX003 (ip), vehicle: saline
# [3] = dose: 400.0 mg/kg/injection, schedule: Q04DX003 (ip), vehicle: saline
# [4] = dose: 200.0 mg/kg/injection, schedule: Q01DX009 (ip), vehicle: Klucel (hydroxypropylcellulose) (HPC)
# [5] = dose: 25.0 mg/kg/injection, schedule: Q01DX009 (ip), vehicle: saline
# [6] = dose: 50.0 mg/kg/injection, schedule: Q01DX005 (ip), vehicle: saline with Tween-80
# [7] = dose: 100.0 mg/kg/injection, schedule: Q01DX005 (ip), vehicle: saline with Tween-80
# [8] = dose: 200.0 mg/kg/injection, schedule: Q01DX005 (ip), vehicle: saline with Tween-80
# [9] = dose: 100.0 mg/kg/injection, schedule: Q04DX003 (ip), vehicle: saline with Tween-80
# [10] = dose: 200.0 mg/kg/injection, schedule: Q04DX003 (ip), vehicle: saline with Tween-80
# [11] = dose: 400.0 mg/kg/injection, schedule: Q04DX003 (ip), vehicle: saline with Tween-80
compound,measurement,setting,value
CCCCCCC[CH2][Sn]([Cl])([CH2]CCCCCCC)[O][Sn]([CH2]CCCCCCC)([CH2]CCCCCCC)[O]C,T/C,[1],101 % of control
same,T/C,[2],96 % of control
same,T/C,[3],98 % of control
COc1cc2ccc3c[n+]4ccccc4cc3c2cc1OC,T/C,"dose: 6.25 mg/kg/injection, schedule: Q01DX009 (ip), vehicle: Klucel (hydroxypropylcellulose) (HPC)",103 % of control
same,T/C,"dose: 12.5 mg/kg/injection, schedule: Q01DX009 (ip), vehicle: Klucel (hydroxypropylcellulose) (HPC)",108 % of control
COc1ccc(CC2C(=O)NC(C)C(=O)N(C)C3C(=O)N(C)C(Cc4ccc(OC(C)=O)c(c4)Oc4ccc(cc4)C3OC(C)=O)C(=O)NC(C)C(=O)NC(C)C(=O)N2C)cc1 (centres undefined),T/C,"dose: 2.0 mg/kg/injection, schedule: Q01DX009 (ip), vehicle: none",154 % of control
O=S(=O)(SC(S(=O)(=O)c1ccccc1)S(=O)(=O)c1ccccc1)c1ccccc1,T/C,[4],123 % of control
same,T/C,"dose: 400.0 mg/kg/injection, schedule: Q01DX009 (ip), vehicle: Klucel (hydroxypropylcellulose) (HPC)",123 % of control
[O-][n+]1cc(Cl)cc(Cl)c1,T/C,[5],100 % of control and 106 % of control
same,T/C,"dose: 50.0 mg/kg/injection, schedule: Q01DX009 (ip), vehicle: saline",108 % of control and 96 % of control
same,T/C,"dose: 100.0 mg/kg/injection, schedule: Q01DX009 (ip), vehicle: saline",100 % of control and 96 % of control
same,T/C,"dose: 200.0 mg/kg/injection, schedule: Q01DX009 (ip), vehicle: saline",99 % of control and 102 % of control
same,T/C,"dose: 400.0 mg/kg/injection, schedule: Q01DX009 (ip), vehicle: saline",99 % of control and 96 % of control
CN(CC(=O)NC(Cc1c[nH]c2ccccc12)C(=O)O)C(=O)OCc1ccccc1 (centres undefined),T/C,[6],96 % of control
same,T/C,[7],102 % of control
same,T/C,[8],98 % of control
CCOC(=O)NC(=O)CCC(=O)Nc1ccc2ccccc2c1,T/C,[9],97 % of control
same,T/C,[10],95 % of control
same,T/C,[11],96 % of control
CCCC(N(C)C)P(=O)(O)O (centres undefined),T/C,[1],105 % of control
same,T/C,[2],105 % of control
same,T/C,[3],100 % of control
CC1(C)Cc2oc(=Nc3ccccc3)n(-c3ccccc3)c(=O)c2C1,T/C,"dose: 50.0 mg/kg/injection, schedule: Q01DX009 (ip), vehicle: Klucel (hydroxypropylcellulose) (HPC)",105 % of control
same,T/C,"dose: 100.0 mg/kg/injection, schedule: Q01DX009 (ip), vehicle: Klucel (hydroxypropylcellulose) (HPC)",114 % of control
same,T/C,[4],102 % of control
C=C(C)[C@@H]1CCc2c(O)c(O)c(=O)cc(C)c2C1,T/C,"dose: 1.75 mg/kg/injection, schedule: Q01DX009 (ip), vehicle: saline",108 % of control
same,T/C,"dose: 3.5 mg/kg/injection, schedule: Q01DX009 (ip), vehicle: saline",112 % of control and 113 % of control
same,T/C,"dose: 7.0 mg/kg/injection, schedule: Q01DX009 (ip), vehicle: saline",101 % of control and 121 % of control
same,T/C,"dose: 14.0 mg/kg/injection, schedule: Q01DX009 (ip), vehicle: saline",110 % of control
same,T/C,"dose: 28.0 mg/kg/injection, schedule: Q01DX009 (ip), vehicle: saline",121 % of control
same,T/C,"dose: 56.0 mg/kg/injection, schedule: Q01DX009 (ip), vehicle: saline",119 % of control
Cc1cc(C)cc(C(=O)NC(=C(NC(=O)c2cc(C)cc(C)c2)c2ccncc2)c2ccncc2)c1 (mixture of isomers),T/C,"dose: 12.5 mg/kg/injection, schedule: Q01DX005 (ip), vehicle: saline with Tween-80",96 % of control
same,T/C,"dose: 25.0 mg/kg/injection, schedule: Q01DX005 (ip), vehicle: saline with Tween-80",90 % of control
same,T/C,[6],86 % of control and 90 % of control
COC(=O)C1=C(C(=O)OC)[C]([Hg][CH3])(C(=O)c2ccccc2)N=N1 (centres undefined),T/C,"dose: 6.25 mg/kg/injection, schedule: Q01DX009 (ip), vehicle: saline",93 % of control
same,T/C,"dose: 12.5 mg/kg/injection, schedule: Q01DX009 (ip), vehicle: saline",103 % of control
same,T/C,[5],90 % of control
c1ccc2c(OCC3CO3)c3ccccc3nc2c1 (centres undefined),T/C,[6],118 % of control
same,T/C,[7],108 % of control
same,T/C,[8],102 % of control
CCCCCCCCCCCCCCCCNCC(O)CN (centres undefined),T/C,"dose: 3.13 mg/kg/injection, schedule: Q01DX009 (ip), vehicle: saline with Tween-80",102 % of control
same,T/C,"dose: 6.25 mg/kg/injection, schedule: Q01DX009 (ip), vehicle: saline with Tween-80",96 % of control
same,T/C,"dose: 12.5 mg/kg/injection, schedule: Q01DX009 (ip), vehicle: saline with Tween-80",88 % of control
COc1ccc(NC(=O)CCC(=O)CC(=O)c2ccc(C)cc2)cc1,T/C,"dose: 60.0 mg/kg/injection, schedule: Q01DX005 (ip), vehicle: saline with Tween-80",105 % of control
same,T/C,"dose: 120.0 mg/kg/injection, schedule: Q01DX005 (ip), vehicle: saline with Tween-80",106 % of control
same,T/C,"dose: 240.0 mg/kg/injection, schedule: Q01DX005 (ip), vehicle: saline with Tween-80",101 % of control
NS(=O)(=O)c1cc(Br)ccc1Br,T/C,[9],99 % of control
same,T/C,[10],117 % of control
same,T/C,[11],117 % of control
